Patent US12509468B2, “Quindoline compounds and uses thereof” (Arizona Board of Regents on Behalf of the University of …, priority 2019, dated 2025)

What was measured:
[1] = test system: DNA oligomer containing the G-quadruplex forming region of the c-Myc promoter; assay: FRET assay with c-Myc G-quadruplex oligomer (ED35); type: binding; conditions: concentration of ligand that decreases relative fluorescence of DNA FRET probe (1 μM) by 35%
Procedure: All synthesized ligands are examined with a DNA oligomer containing the G-quadruplex forming region of the c-Myc promoter (d[[…]]). The oligomer is tagged with a 5′-FAM fluorophore and a 3′-Black Hole Quencher molecule. 1 μM oligomer is linearized by heating at 95° C. for 5 minutes in a 50 mM Tris-Acetate buffer (pH 7.1) and slowly cooled back to room temperature, allowing formation of a G-quadruplex. Ligand is added to the oligomer probe at various concentrations spanning a 2-3 log range (high dose of 10 μM), allowed to incubate for 15 minutes in the dark and fluorescence is read on the BioTek Synergy HT spectrophotometer (Biotek, Winooski, VT). Drug autofluorescence is subtracted, data is normalized to oligomer only, and ED35s are calculated from data fit by a sigmoidal top-to-bottom nonlinear regression. ED35s<10 μM are further analyzed by circular dichroism (CD).
Experimental values for compounds tested according to one or more of the preceding examples are reported in the following table, including, ED35 is the concentration of ligand that decreases the relative fluorescence of a DNA FRET probe (1 μM) by 35% (identified as the threshold to minimize false negatives). ED35 values are reported in ranges: A: >10 μM; B: ≤10 μM.

[2] = test system: c-Myc oligomer (parallel G-quadruplex); assay: Circular dichroism melting (ΔTm) with 1 equivalent of ligand; type: binding; conditions: increase in melting temperature with 1 equivalent of ligand (DNA:Ligand=1:1)
Procedure: Non-labeled oligomers were prepared as described for FRET (Example VII). Ligands interacting with the c-Myc FRET oligomer are further examined for DNA secondary structure stabilization by CD (Sun et al., 2005). Briefly, the CD absorption spectra at 262 nm (parallel G-quadruplex) with increasing temperatures (4-95° C.) is examined in the absence and presence of 1 equivalence of ligand. TM is calculated by GraphPad Prizm using a top-to-bottom nonlinear fit, and ΔTM are calculated for each ligands.

[3] = test system: hTERT G-quadruplex; assay: Competition dialysis, ligand bound to G-quadruplex; type: binding; conditions: 2 μM of compound
Procedure: (§1) Following the competition dialysis assay method of the Chaires group (Ragazzon et al., Methods 2007, 42, 173-182, which is hereby incorporated by reference in its entirety) using 2 μM of the referenced compound, the concentration of ligand bound to G-quadruplex structure for a variety of target genes were determined.

[4] = test system: Telomeric G-quadruplex; assay: Competition dialysis, ligand bound to G-quadruplex; type: binding; conditions: 2 μM of compound
Procedure: as §1

[5] = test system: PDGF-Rβ G-quadruplex; assay: Competition dialysis, ligand bound to G-quadruplex; type: binding; conditions: 2 μM of compound
Procedure: as §1

[6] = test system: VEGF G-quadruplex; assay: Competition dialysis, ligand bound to G-quadruplex; type: binding; conditions: 2 μM of compound
Procedure: as §1

[7] = test system: Bcl-2 G-quadruplex; assay: Competition dialysis, ligand bound to G-quadruplex; type: binding; conditions: 2 μM of compound
Procedure: as §1

[8] = test system: PDGFA G-quadruplex; assay: Competition dialysis, ligand bound to G-quadruplex; type: binding; conditions: 2 μM of compound
Procedure: as §1

[9] = test system: HIF-1α G-quadruplex; assay: Competition dialysis, ligand bound to G-quadruplex; type: binding; conditions: 2 μM of compound
Procedure: as §1

[10] = test system: MYC G-quadruplex; assay: Competition dialysis, ligand bound to G-quadruplex; type: binding; conditions: 2 μM of compound
Procedure: as §1

[11] = test system: ARv7 splice variant; assay: ARv7 splice variant expression by immunoblotting in 22RV1; type: cell-based; conditions: 22RV1 cells, 24 h
Procedure: (§2) This example provides specific compounds of the present invention suppress AR protein expression in androgen-dependent (LNCaP) and CRPC tumor cells ([…]) after a 24 h treatment at 10 μM (FIG. 1A) (Cell lysates from LNCaP and C4-2 cells treated with GSA compounds at a concentration of 10 μM for 24 hours were analyzed for expression of AR, NCL, and GAPDH by immunoblotting). GSA0932 suppress AR expression in 22RV1 and VCaP tumor cells, after 24 h of treatment reaching its maximal inhibitory activity at a concentration of 3 and 5 μM respectively (FIG. 1B) (Cell lysates from indicated prostate cancer cell lines treated with increasing concentrations GSA0932 for 24 hours were analyzed for AR, NCL, and GAPDH by immunoblotting). […] Values are means±s.e.m; p<0.05 (*); n=3).

[12] = test system: G4-deleted AR reporter; assay: Dual reporter, Gaussia luciferase driven by mutant AR promoter lacking the G4 element, in LNCaP; type: cell-based; conditions: LNCaP stable cells, 10 μM, 12 hours
Excerpt: (§3) To measure the dependency of GSA0932-mediated AR suppression on the AR G4-element, we generated a stable LNCaP cell lines expressing a dual reporter in which Gaussia luciferase is driven by either a wild type or a mutant AR promoter lacking the G4 element, and secreted alkaline phosphatase (SEAP) is driven by a constitutive promoter. […] However, GSA0932 had no effect on the G4-deleted AR reporter (FIG. 1E). […] Knocking down NCL expression alleviated the GSA0932 inhibitory activity against AR mRNA expression compared with control cells (FIG. 1G) (LNCaP cells were transfected with scrambled (Scr) or NCL siRNAs and […] post-transfection, cells were treated with DMSO, 10 μM GSA0932, or […] GSA1502 for 12 hours. Extracted RNA was analyzed for AR expression by RT-qPCR).

[13] = test system: AR; assay: AR protein expression by immunoblotting in prostate cancer cells; type: cell-based; conditions: for concentration of maximal inhibitory activity on AR expression: 24 h of treatment
Procedure: as §2

[14] = test system: KLK3, also known as PSA; assay: mRNA expression of AR target gene by RT-qPCR; type: cell-based; conditions: 12 hours; 10 μM (LNCaP, C4-2), 5 μM (VCaP), 3 μM (22RV1)
[15] = test system: RWPE non-malignant prostate cells; assay: Cell viability by MTT, 48 h; type: cell-based
Excerpt: (§4) Table V provides the IC50 values for GSA0932.

[16] = test system: PC3 cells; assay: Cell viability by MTT, 48 h; type: cell-based; conditions: Homo sapiens, PC-3, PC3, 48 h
Excerpt: as §4

[17] = test system: LNCaP cells; assay: Cell viability by MTT, 48 h; type: cell-based; conditions: Homo sapiens
Excerpt: as §4

[18] = test system: 22Rv1 cells; assay: Cell viability by MTT, 48 h; type: cell-based; conditions: Homo sapiens, 22Rv1, 48 h
Excerpt: as §4

[19] = test system: VCaP cells; assay: Cell viability by MTT, 48 h; type: cell-based; conditions: Homo sapiens
Excerpt: as §4

[20] = test system: C4-2 cells; assay: Cell viability by MTT, 48 h; type: cell-based; conditions: C4-2, 48 h
Excerpt: as §4

[21] = test system: AR-positive tumor cells versus non-AR expressing cells; assay: Cytotoxic activity across prostate cell lines by MTT; type: cell-based; conditions: 48 h
Excerpt: as §4

[22] = test system: NCL bound to the G4-element of the AR promoter; assay: ChIP of NCL on AR G4; type: cell-based; conditions: LNCaP and C4-2 cells, 10 μM
[23] = test system: AR mRNA; assay: AR mRNA expression by RT-qPCR; type: cell-based; conditions: 10 μM; for AR mRNA: LNCaP and C4-2 cells, 12 and 24 hours
Procedure: as §2, §3

[24] = test system: wild type AR promoter (AR G4) reporter; assay: Dual reporter, Gaussia luciferase driven by wild type AR promoter, in LNCaP; type: cell-based; conditions: LNCaP stable cells, 10 μM, 12 hours
Excerpt: as §3

## c1ccc2c3c4c(nc2c1)c1ccccc1n4CCCN3CCN1CCOCC1 [Compound 1]
[1]
  ED35: A (A: >10 μM)
[2]
  ΔTm: A (A: 0-10° C.)

## OC1CCN(CCN2CCCn3c4ccccc4c4nc5ccccc5c2c43)CC1 [Compound 2]
[1]
  ED35: A (A: >10 μM)
[2]
  ΔTm: A (A: 0-10° C.)

## c1ccc2c3c4c(nc2c1)c1ccccc1n4CCCN3CCCN1CCOCC1 [Compound 3]
[3]
  concentration of ligand bound to G-quadruplex structure: 10.5 µM
[4]
  concentration of ligand bound to G-quadruplex structure: 1.0 µM
[5]
  concentration of ligand bound to G-quadruplex structure: 0.0 µM
[6]
  concentration of ligand bound to G-quadruplex structure: 3.0 µM
[7]
  concentration of ligand bound to G-quadruplex structure: 3.0 µM
[8]
  concentration of ligand bound to G-quadruplex structure: 0.5 µM
[9]
  concentration of ligand bound to G-quadruplex structure: 4.0 µM
[10]
  concentration of ligand bound to G-quadruplex structure: 1.0 µM
[1]
  ED35: B (B: ≤10 μM)
[2]
  ΔTm: A (A: 0-10° C.)

## OCCCN1CCCn2c3ccccc3c3nc4ccccc4c1c32 [Compound 4]
[1]
  ED35: B (B: ≤10 μM)
[2]
  ΔTm: A (A: 0-10° C.)

## CN1CCN(CCCN2CCCn3c4ccccc4c4nc5ccccc5c2c43)CC1 [Compound 5]
[1]
  ED35: A (A: >10 μM)
[2]
  ΔTm: A (A: 0-10° C.)

## Cl.c1ccc2c3c4c(nc2c1)c1ccccc1n4CCCN3CCCN1CCCCCC1 [Compound 6]
[1]
  ED35: A (A: >10 μM)
[2]
  ΔTm: A (A: 0-10° C.)

## OC1CCN(CCCN2CCCn3c4ccccc4c4nc5ccccc5c2c43)CC1 [Compound 7]
[1]
  ED35: B (B: ≤10 μM)
[2]
  ΔTm: A (A: 0-10° C.)

## CN1CCN(C(=O)NCCN2CCCn3c4ccccc4c4nc5ccccc5c2c43)CC1 [Compound 8]
[1]
  ED35: B (B: ≤10 μM)
[2]
  ΔTm: B (B: >10° C.)

## O=C(NCCN1CCCn2c3ccccc3c3nc4ccccc4c1c32)C1C[C@@H](O)CN1 (stereo partly drawn) [Compound 9]
[1]
  ED35: B (B: ≤10 μM)
[2]
  ΔTm: B (B: >10° C.)

## CN1CCN(C(=O)NCCCN2CCCn3c4ccccc4c4nc5ccccc5c2c43)CC1 [Compound 10]
[3]
  concentration of ligand bound to G-quadruplex structure: 9.5 µM
[4]
  concentration of ligand bound to G-quadruplex structure: 2.9 µM
[5]
  concentration of ligand bound to G-quadruplex structure: 8.3 µM
[6]
  concentration of ligand bound to G-quadruplex structure: 2.5 µM
[7]
  concentration of ligand bound to G-quadruplex structure: 8.3 µM
[8]
  concentration of ligand bound to G-quadruplex structure: 1.8 µM
[9]
  concentration of ligand bound to G-quadruplex structure: 3.3 µM
[10]
  concentration of ligand bound to G-quadruplex structure: 6.8 µM
[1]
  ED35: B (B: ≤10 μM)
[2]
  ΔTm: A (A: 0-10° C.)

## O=C(NCCCN1CCCn2c3ccccc3c3nc4ccccc4c1c32)C1C[C@@H](O)CN1 (stereo partly drawn) [Compound 11]
[1]
  ED35: B (B: ≤10 μM)
[2]
  ΔTm: B (B: >10° C.)

## c1ccc2c3c4c(nc2c1)c1ccccc1n4CCCN3CCCNc1ncnc2nc[nH]c12 [Compound 12]
[1]
  ED35: B (B: ≤10 μM)
[2]
  ΔTm: A (A: 0-10° C.)

## CN1CCN(C(=O)N2C[C@H](O)CC2C(=O)NCCCN2CCCn3c4ccccc4c4nc5ccccc5c2c43)CC1 (stereo partly drawn) [Compound 13]
[1]
  ED35: B (B: ≤10 μM)
[2]
  ΔTm: A (A: 0-10° C.)

## NCCCN1CCCn2c3ccccc3c3nc4ccccc4c1c32 [Compound 14]
[1]
  ED35: B (B: ≤10 μM)
[2]
  ΔTm: A (A: 0-10° C.)

## c1ccc2c3c4c(nc2c1)c1ccccc1n4CCCN3CCCN1CCCCC1 [Compound 15]
[1]
  ED35: B (B: ≤10 μM)

## OC1CCN(CCN2CCCn3c4ccccc4c4nc5ccccc5c2c43)CC1 [GSA0932]
[11]
  expression of ARv7 splice variant: inhibits the expression
[12]
  effect on G4-deleted AR reporter: had no effect
[13]; 22RV1 cells
  concentration of maximal inhibitory activity on AR expression: 3 µM
[13]; VCaP cells
  concentration of maximal inhibitory activity on AR expression: 5 µM
[14]
  mRNA expression of AR target gene KLK3 (PSA): suppressed mRNA expression
[15]
  IC50: 5.4 ± 0.05 µM
[16]
  IC50: 4.3 ± 0.16 µM
[17]
  IC50: 1.4 ± 0.26 µM
[18]
  IC50: 0.9 ± 0.11 µM
[19]
  IC50: 2.8 ± 0.03 µM
[20]
  IC50: 2 ± 0.04 µM
[21]
  cytotoxic activity, AR-positive versus non-AR expressing cells: stronger cytotoxic activity against AR-positive tumor cells than non-AR expressing cells
[22]
  amount of NCL bound to the G4-element of the AR promoter: increases the amount of NCL bound
[23]
  AR mRNA: significantly decreased
[23]; LNCaP cells, NCL siRNA versus scrambled, 12 hours
  inhibitory activity against AR mRNA expression after NCL knockdown: alleviated
[24]
  luciferase activity of wild type reporter: significantly decreases luciferase activity

## CN(C)CCN1CCCn2c3ccccc3c3nc4ccccc4c1c32 [GSA1502]
[13]; LNCaP and C4-2 cells, 24 h, 10 μM
  AR protein expression: does not affect
[23]
  AR mRNA: does not affect
